≈ marks a conversion by molar mass, not a printed value.
Legend:
Type in all cases: functional
Staphylococcus aureus = assay: Antimicrobial activity against Staphylococcus aureus ATCC 25923 after18 to 20 hrs by broth dilution method
[1] = test system: Staphylococcus epidermidis; assay: Antimicrobial activity against Staphylococcus epidermidis ATCC 14990 after18 to 20 hrs by broth dilution method
Enterococcus faecalis = assay: Antimicrobial activity against Enterococcus faecalis ATCC 29212 after18 to 20 hrs by broth dilution method
Bacillus cereus = assay: Antimicrobial activity against Bacillus cereus ATCC 13061 after18 to 20 hrs by broth dilution method
Escherichia coli = assay: Antimicrobial activity against Escherichia coli ATCC 25922 after18 to 20 hrs by broth dilution method
Enterobacter cloacae = assay: Antimicrobial activity against Enterobacter cloacae ATCC 49141 after18 to 20 hrs by broth dilution method
Citrobacter freundii = assay: Antimicrobial activity against Citrobacter freundii ATCC 8090 after18 to 20 hrs by broth dilution method
Acinetobacter baumannii = assay: Antimicrobial activity against Acinetobacter baumannii ATCC 19606 after18 to 20 hrs by broth dilution method
Pseudomonas aeruginosa = assay: Antimicrobial activity against Pseudomonas aeruginosa ATCC 27853 after18 to 20 hrs by broth dilution method
Candida albicans = assay: Antimicrobial activity against Candida albicans ATCC 90028 after 48 hrs by broth dilution method; settings: ATCC 90028, 48 h

SMILES	MIC (Staphylococcus aureus) [µg/mL]	MIC [1] [µg/mL]	MIC (Enterococcus faecalis) [µg/mL]	MIC (Bacillus cereus) [µg/mL]	MIC (Escherichia coli) [µg/mL]	MIC (Enterobacter cloacae) [µg/mL]	MIC (Citrobacter freundii) [µg/mL]	MIC (Acinetobacter baumannii) [µg/mL]	MIC (Pseudomonas aeruginosa) [µg/mL]	MIC (Candida albicans) [µg/mL]
O=S(=O)(c1ccccc1)c1ccc(-c2nnc3sc(-c4ccc(Cl)c(Br)c4)nn23)cc1	256 (≈ 481 µM)	128 (≈ 241 µM)	128 (≈ 241 µM)	256 (≈ 481 µM)	128 (≈ 241 µM)	512 (≈ 963 µM)	1020 (≈ 1930 µM)	256 (≈ 481 µM)	128 (≈ 241 µM)	512 (≈ 963 µM)
O=S(=O)(c1ccc(Br)cc1)c1ccc(-c2nnc3sc(-c4ccc(Br)cc4)nn23)cc1	256 (≈ 444 µM)	64 (≈ 111 µM)	128 (≈ 222 µM)	1020 (≈ 1780 µM)	256 (≈ 444 µM)	256 (≈ 444 µM)	128 (≈ 222 µM)	256 (≈ 444 µM)	256 (≈ 444 µM)	128 (≈ 222 µM)
O=S(=O)(c1ccc(Br)cc1)c1ccc(-c2nnc3sc(-c4ccc(Cl)cc4)nn23)cc1	128 (≈ 241 µM)	128 (≈ 241 µM)	64 (≈ 120 µM)	256 (≈ 481 µM)	128 (≈ 241 µM)	512 (≈ 963 µM)	512 (≈ 963 µM)	256 (≈ 481 µM)	512 (≈ 963 µM)	1020 (≈ 1930 µM)
COc1ccc(-c2nn3c(-c4ccc(S(=O)(=O)c5ccc(Br)cc5)cc4)nnc3s2)cc1	128 (≈ 243 µM)	512 (≈ 971 µM)	512 (≈ 971 µM)	256 (≈ 485 µM)	256 (≈ 485 µM)	1020 (≈ 1940 µM)	512 (≈ 971 µM)	256 (≈ 485 µM)	512 (≈ 971 µM)	512 (≈ 971 µM)
Nc1ccc(-c2nn3c(-c4ccc(S(=O)(=O)c5ccc(Br)cc5)cc4)nnc3s2)cc1	256 (≈ 500 µM)	512 (≈ 999 µM)	512 (≈ 999 µM)	128 (≈ 250 µM)	256 (≈ 500 µM)	1020 (≈ 2000 µM)	512 (≈ 999 µM)	1020 (≈ 2000 µM)	512 (≈ 999 µM)	512 (≈ 999 µM)
NCc1ccc(-c2nn3c(-c4ccc(S(=O)(=O)c5ccc(Br)cc5)cc4)nnc3s2)cc1	512 (≈ 973 µM)	1020 (≈ 1950 µM)	512 (≈ 973 µM)	256 (≈ 486 µM)	256 (≈ 486 µM)	1020 (≈ 1950 µM)	1020 (≈ 1950 µM)	1020 (≈ 1950 µM)	128 (≈ 243 µM)	512 (≈ 973 µM)
O=S(=O)(c1ccc(Br)cc1)c1ccc(-c2nnc3sc(-c4cc(O)c(O)c(O)c4)nn23)cc1	256 (≈ 469 µM)	128 (≈ 235 µM)	64 (≈ 117 µM)	256 (≈ 469 µM)	128 (≈ 235 µM)	256 (≈ 469 µM)	128 (≈ 235 µM)	128 (≈ 235 µM)	128 (≈ 235 µM)	512 (≈ 939 µM)
O=S(=O)(c1ccc(Br)cc1)c1ccc(-c2nnc3sc(-c4ccc(Cl)c(Br)c4)nn23)cc1	64 (≈ 105 µM)	32 (≈ 52.4 µM)	32 (≈ 52.4 µM)	128 (≈ 210 µM)	64 (≈ 105 µM)	256 (≈ 419 µM)	1020 (≈ 1680 µM)	512 (≈ 838 µM)	32 (≈ 52.4 µM)	256 (≈ 419 µM)
O=S(=O)(c1ccccc1)c1ccc(-c2nnc3sc(O)nn23)cc1	256 (≈ 714 µM)	512 (≈ 1430 µM)	128 (≈ 357 µM)	1020 (≈ 2860 µM)	256 (≈ 714 µM)	256 (≈ 714 µM)	512 (≈ 1430 µM)	128 (≈ 357 µM)	512 (≈ 1430 µM)	256 (≈ 714 µM)
O=S(=O)(c1ccc(Br)cc1)c1ccc(-c2nnc3sc(O)nn23)cc1	256 (≈ 585 µM)	128 (≈ 293 µM)	64 (≈ 146 µM)	1020 (≈ 2340 µM)	256 (≈ 585 µM)	256 (≈ 585 µM)	256 (≈ 585 µM)	256 (≈ 585 µM)	256 (≈ 585 µM)	256 (≈ 585 µM)
C[C@@H]1[C@H](O)[C@@H](C)/C=C/C=C/C=C/C=C/C=C/C=C/C=C/[C@H](O[C@@H]2O[C@H](C)[C@@H](O)[C@H](N)[C@@H]2O)C[C@@H]2O[C@](O)(C[C@@H](O)C[C@@H](O)[C@H](O)CC[C@@H](O)C[C@@H](O)CC(=O)O[C@H]1C)C[C@H](O)[C@H]2C(=O)O [AMPHOTERICIN B]	–	–	–	–	–	–	–	–	–	2 (≈ 2.16 µM)
CC1(C)S[C@@H]2[C@H](NC(=O)[C@H](N)c3ccccc3)C(=O)N2[C@H]1C(=O)O [AMPICILLIN]	< 2	< 2	< 2	< 2	–	–	–	–	–	–
C[C@H]1[C@H](NC(=O)/C(=N\OC(C)(C)C(=O)O)c2csc(N)n2)C(=O)N1S(=O)(=O)O [AZTREONAM]	–	–	–	–	< 2	–	< 2	< 2	4 (≈ 9.19 µM)	–

Reference: ChEMBL document CHEMBL1629422, “Synthesis and antimicrobial evaluation of some fused heterocyclic [1,2,4]triazolo[3,4-b][1,3,4]thiadiazole derivatives” (2010)
